Source: patent US20230301972A1, “ANTI-FIBROTIC COMPOSITION AND RELATED METHODS” (Fred Hutchinson Cancer Center, priority 2020, published 2023)

Columns and labels:
Assay type in all cases: cell-based, human
[1] = test system: LX2 cells; assay: Live cell wound healing assay in LX2 cells; details: 1 μM; TGFb 6.5 ng/ml; wound closure density at 50 hour
Method: (§1) LX2 cells were obtained from Sigma Aldrich (Cat #SCC064). LX2 cells were grown at 37° C. under 5% CO2, 95% ambient atmosphere and maintained in Dulbecco's […] (DMEM) supplemented with 10% FBS (Sigma) and 1% Penn Strep.
FIG. 10A: LX2 cells were plated on 96-well plates (Essen Image Lock, Essen Instruments). […] Wound closure was monitored with Incucyte Live-Cell Imaging System and software (Essen Instruments) every 2-4 hours for 72 hours. The mean relative wound density of at least three biological replicates was calculated. The wound density correlates with the cell motility. Plotted is the wound closure density at 50 hour.

[2] = test system: LX2 cells; assay: qPCR of TGF-β-induced gene expression in LX2 cells; details: galunisertib
Method: as §1
(§2) FIGS. 10B and 10C: LX2 cells were incubated with TGF-β alone at 6.5 ng/ml or TGF-β with indicated drugs for 48 hours. Total cellular RNA was isolated using a RNeasy Mini Kit (QIAGEN). 1 μg of total RNA was reverse transcribed into first-strand cDNA using an RT2 First Strand Kit (QIAGEN). The resultant cDNA was subjected to qPCR using indicated human primers to measure the changes in mRNA expression of indicated human genes.

[3] = test system: IPF-LL29 and IPF-LL97A cells; assay: qPCR of TGF-β-induced gene expression in IPF-LL29 and IPF-LL97A cells; details: nintedanib at a same equivalent dose, pirfenidone at a much higher dose; FIGS. 2A, 2B, 3A, 3B
Method: IPF-LL29, IPF-LL97A, and human lung fibroblast LL47 cell lines were purchased from ATCC. Mouse lung fibroblasts were isolated from the lungs of male C57BL/6J mice. Cells were grown at 37° C. under 5% CO2, 95% ambient atmosphere and maintained in Dulbecco's […] (DMEM) supplemented with 10% FBS (Sigma) and 1% Penn Strep.
as §2, with “2A” for “10B”, “2B. IPF-29 (FIG. 2A) or IPF-97A (FIG. 2B)” for “10C: LX2”, “5” for “6.5”, “hours and 5 days.” for “hours.”

Structure (SMILES)	TGF-β-induced motility of LX2 cells [1]	effect on TGF-β-induced expression of COL1A1 and αSMA [2]	TGF-β induced expression of myofibroblast activation marker genes or proliferation stimuli [3]
Cc1cccc(-c2nn3c(c2-c2ccnc4ccc(C(N)=O)cc24)CCC3)n1 [galunisertib, reference compound]	did not affect LX2 cell motility	modest effect	
Cc1ccc(=O)n(-c2ccccc2)c1 [pirfenidone, reference compound]			did not effectively block
COC(=O)c1ccc2c(c1)NC(=O)/C2=C(\Nc1ccc(N(C)C(=O)CN2CCN(C)CC2)cc1)c1ccccc1 [nintedanib, reference compound]			did not effectively block
